Measured values taken from patent US20100273805A1, “SULPHIDE BRIDGED DERIVATIVES AS MODULATORS OF MGLUR5 733” (AstraZeneca AB, priority 2009, published 2010).

Tests used:
human mGluR5d = biological target: T1, human mGluR5d (Homo sapiens, UniProt P41594); assay: FLIPR assay, mobilization of intracellular calcium in cells expressing human mGluR5d; type: cell-based; settings: antagonism in cells expressing human mGluR5d, fluo-4 calcium signal; read-out: FLIPR hmGluR5d
T1 construct: expressed in transfected cells
T1 sequence (P41594 21-942 isoform P41594-3 limits assumed): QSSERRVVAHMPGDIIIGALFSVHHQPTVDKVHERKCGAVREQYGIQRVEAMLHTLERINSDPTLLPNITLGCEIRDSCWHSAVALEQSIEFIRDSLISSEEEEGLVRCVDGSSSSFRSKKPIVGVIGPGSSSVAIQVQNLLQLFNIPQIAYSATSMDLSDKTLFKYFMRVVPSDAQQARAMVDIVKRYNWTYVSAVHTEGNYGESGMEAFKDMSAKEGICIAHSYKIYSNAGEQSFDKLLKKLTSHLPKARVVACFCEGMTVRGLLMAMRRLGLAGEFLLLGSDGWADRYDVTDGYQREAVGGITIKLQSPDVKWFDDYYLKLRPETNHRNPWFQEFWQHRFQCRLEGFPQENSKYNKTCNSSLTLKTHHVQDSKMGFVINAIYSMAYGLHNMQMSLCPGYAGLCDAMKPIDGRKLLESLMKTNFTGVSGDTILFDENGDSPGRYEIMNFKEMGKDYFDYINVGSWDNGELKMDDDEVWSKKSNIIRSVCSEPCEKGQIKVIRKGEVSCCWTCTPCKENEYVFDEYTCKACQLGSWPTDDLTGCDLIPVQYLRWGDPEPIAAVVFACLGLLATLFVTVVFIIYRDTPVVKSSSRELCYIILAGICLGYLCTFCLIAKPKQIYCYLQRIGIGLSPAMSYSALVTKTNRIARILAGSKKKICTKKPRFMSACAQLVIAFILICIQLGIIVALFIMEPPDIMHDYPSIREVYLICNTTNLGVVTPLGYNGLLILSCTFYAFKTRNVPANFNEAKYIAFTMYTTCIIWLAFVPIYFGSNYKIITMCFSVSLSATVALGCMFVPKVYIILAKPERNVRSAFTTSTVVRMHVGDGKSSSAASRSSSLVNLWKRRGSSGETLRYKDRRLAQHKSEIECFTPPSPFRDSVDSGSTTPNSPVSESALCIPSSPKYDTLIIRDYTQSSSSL
Excerpt: Functional Assessment of mGluR5 Antagonism in Cell Lines Expressing mGluR5D
The properties of the compounds of the invention can be analyzed using standard assays for pharmacological activity. Examples of glutamate receptor assays are well known in the art as described in for example Aramori et al., Neuron 8:757 (1992), Tanabe et al., Neuron 8:169 (1992), Miller et al., J. Neuroscience 15: 6103 (1995), Balazs, et al., J. Neurochemistry 69:151 (1997). The methodology described in these publications is incorporated herein by reference. Conveniently, the compounds of the invention can be studied by means of an assay (FLIPR) that measures the mobilization of intracellular calcium, [Ca^2+]i in cells expressing mGluR5 or another assay (IP3) that measures inositol phosphate accumulation.
Cells expressing human mGluR5d as described in WO97/05252 cultured in a mixture of high glucose DMEM with Glutamax (31966-021) (500 mL), 10% dialyzed fetal bovine serum (Hyclone #SH30079.03)(56 mL), 200 ug/mL Hygromycin B (Invitrogen 45-0430, 50 mg/mL) (2.2 mL), 200 ug/mL Zeocin (Invitrogen #R250-01; 100 mg/mL) (1.1 mL) are seeded at a density of 15,000 cells per well on a black poly-D Lysin coated 384-plate with clear bottom (BD Biocoat 356663). Cells are allowed to adhere over night before experiments. All assays are done in a buffer containing 146 mM NaCl, 5 mM KCl, 1 mM MgCl2, 1 mM CaCl2, 20 mM HEPES, 1 mg/mL glucose and 1 mg/mL BSA Fraction IV (pH 7.4). Cell cultures in the 384-well plates are loaded for 60 minutes in the above mentioned buffer containing 3 μM of the acetoxymethyl ester form of the fluorescent calcium indicator fluo-4 (Molecular Probes, Eugene, Oreg.) in 0.025% pluronic acid (a proprietary, non-ionic surfactant polyol—CAS Number 9003-11-6). Following the loading period, the fluo-4 buffer is removed and the cellplate is washed three times with fresh assay buffer. FLIPR experiments are done using a laser setting of 1.0 W and 0.4 second CCD camera shutter speed with excitation and emission wavelengths of 488 nm and 562 nm, respectively.
Each experiment is initiated with 20 μl of buffer present in each well of the cell plate when 7.5 μl from the antagonist plate is added. After 30 minutes incubation in the dark at 25° C., 20 μL from the agonist plate is added to the wells. The fluorescence signal is sampled 60 times at 1 second intervals followed by 20 samples at 6 seconds intervals immediately after the agonist addition. Responses are measured as the difference between the peak height of the response to agonist, less the background fluorescence within the sample period. IC50 determinations are made using a […] least squares fitting program.

[1] = Determination of brain to plasma ratio in rat; type: in vivo; settings: brain and plasma, female Sprague Dawley rats, drug in brain over drug in plasma, read-out: Brain/Plasma Ratio of compound in Rat
Description: Brain to plasma ratios are estimated in female Sprague Dawley rats. The compound is dissolved in water or another appropriate vehicle. For determination of brain to plasma ratio the compound is administrated as a subcutaneous, or an intravenous bolus injection, or an intravenous infusion, or an oral administration. At a predetermined time point after the administration a blood sample is taken with cardiac puncture. The rat is terminated by cutting the heart open, and the brain is immediately retained. The blood samples are collected in heparinized tubes and centrifuged within 30 minutes, in order to separate the plasma from the blood cells. The plasma is transferred to 96-well plates and stored at −20° C. until analysis. The brains are divided in half, and each half is placed in a pre-tarred tube and stored at −20° C. until analysis. Prior to the analysis, the brain samples are thawed and 3 mL/g brain tissue of distilled water is added to the tubes. The brain samples are sonicated in an ice bath until the samples are homogenized. Both brain and plasma samples are precipitated with acetonitrile. After centrifugation, the supernatant is diluted with 0.2% formic acid. Analysis is performed on a short reversed-phase HPLC column with rapid gradient elution and MSMS detection using a triple quadrupole instrument with electrospray ionisation and Selected Reaction Monitoring (SRM) acquisition. Liquid-liquid extraction may be used as an alternative sample clean-up. The samples are extracted, by shaking, to an organic solvent after addition of a suitable buffer. An aliquot of the organic layer is transferred to a new vial and evaporated to dryness under a stream of nitrogen. After reconstitution of the residuals the samples are ready for injection onto the HPLC column.

SMILES	IC50 (human mGluR5d) [nM]	Kp [1]
Cc1cccc(-n2nnc([C@@H](C)Sc3nnc(-c4cc[nH]c(=O)c4)n3C)n2)c1 [Example 8.1, (R)-4-(4-Methyl-5-(1-(2-m-tolyl-2H-tetrazol-5-yl)ethylthio)-4H-1,2,4-triazol-3-yl)pyridin-2(1H)-one]	19	< 0.01
Cc1cccc(-n2nnc([C@@H](C)Sc3nnc(-c4ccn(C)c(=O)c4)n3C)n2)c1 [Example 8.2, (R)-1-Methyl-4-(4-methyl-5-(1-(2-m-tolyl-2H-tetrazol-5-yl)ethylthio)-4H-1,2,4-triazol-3-yl)pyridin-2(1H)-one]	87	0.1
Cc1cccc(-c2nc([C@@H](C)Sc3nnc(-c4ccn(C)c(=O)c4)n3C)no2)c1 [Example 8.4, (R)-1-Methyl-4-(4-methyl-5-(1-(5-m-tolyl-1,2,4-oxadiazol-3-yl)ethylthio)-4H-1,2,4-triazol-3-yl)pyridin-2(1H)-one]	30	0.16
Cc1cccc(-c2cc([C@@H](C)Sc3nnc(-c4ccn(C)c(=O)c4)n3C)no2)c1 [Example 8.6, (R)-1-Methyl-4-(4-methyl-5-(1-(5-m-tolylisoxazol-3-yl)ethylthio)-4H-1,2,4-triazol-3-yl)pyridin-2(1H)-one]	380	0.02
Cc1cccc(-c2cc([C@@H](C)Sc3nnc(-c4cn[nH]c(=O)c4)n3C)no2)c1 [Example 8.7, (R)-5-(4-Methy1-5-(1-(5-m-tolylisoxazol-3-yl)ethylthio)-4H-1,2,4-triazol-3-yl)pyridazin-3(2H)-one]	19	0.26

The remaining compounds from weak to strong by IC50 (human mGluR5d), led by results:

IC50 (human mGluR5d) [nM]	Kp [1]	SMILES
146	< 0.01	Cc1cccc(-c2cc([C@@H](C)Sc3nnc(-c4cc[nH]c(=O)c4)n3C)no2)c1 [Example 8.5, (R)-4-(4-Methyl-5-(1-(5-m-tolylisoxazol-3-yl)ethylthio)-4H-1,2,4-triazol-3-yl)pyridin-2(1H)-one]
41	0.04	Cc1cccc(-c2nc([C@@H](C)Sc3nnc(-c4cn[nH]c(=O)c4)n3C)no2)c1 [Example 8.10, (R)-5-(4-Methyl-5-(1-(5-m-tolyl-1,2,4-oxadiazol-3-yl)ethylthio)-4H-1,2,4-triazol-3-yl)pyridazin-3(2H)-one]
24	0.09	Cc1cccc(-c2nc([C@@H](C)Sc3nnc(-c4cc[nH]c(=O)c4)n3C)no2)c1 [Example 8.3]
18	< 0.01	Cc1cccc(-n2nnc([C@@H](C)Sc3nnc(-c4cn[nH]c(=O)c4)n3C)n2)c1 [Example 8.8, (R)-5-(4-Methyl-5-(1-(2-m-tolyl-2H-tetrazol-5-yl)ethylthio)-4H-1,2,4-triazol-3-yl)pyridazin-3(2H)-one]
18	< 0.015	C[C@@H](Sc1nnc(-c2cn[nH]c(=O)c2)n1C)c1nnn(-c2cccc(Cl)c2)n1 [Example 8.9, (R)-5-(5-(1-(2-(3-Chlorophenyl)-2H-tetrazol-5-yl)ethylthio)-4-methyl-4H-1,2,4-triazol-3-yl)pyridazin-3(2H)-one]
